Reference: patent US12351561B2, “Crystalline (2S,4R)-5-(5'-chloro-2'-fluoro-[1,1'-biphenyl]-4-yl)-2-(ethoxymethyl)-4-(3-hydroxyisoxazole-5-carboxamido)-2-methylpentanoic acid and uses thereof” (THERAVANCE BIOPHARMA R&D IP, LLC, priority 2016, dated 2025)
Like-named read-outs stand apart in the source and are kept apart here.

Assays:
[1] = Assay 4: Phase 1 multiple-ascending dose study, renal elimination; format: in vivo; settings: human, after multiple dosing, Day 1 and Day 14, all subjects
Procedure: (§1) A Phase 1 multiple-ascending dose (MAD) clinical trial of Compound I′ (Form I) was conducted in order to further evaluate the safety, tolerability, pharmacokinetics of Compound I and its metabolite, pharmacodynamics of Compound I, food effect, absolute oral bioavailability and renal elimination of multiple ascending oral doses of Compound I′ in healthy adult and elderly subjects. As discussed below, the reported data confirms the results stemming from the SAD clinical trial.
(§2) The Phase 1 study was a double-blind, randomized placebo-controlled multiple ascending dose study in healthy male and female volunteers randomized in a 4:1 ratio. The study enrolled 50 healthy adult (19-55 years old) and elderly (65-80 years old) volunteers over multiple weeks for the ascending-dose portion, which included cohorts (n=10/cohort of 8 active and 2 placebo) administered (1) ascending doses of 50 mg, 100 mg, and 200 mg, (2) a dose of 10 mg studied in parallel with 200 mg for PK/PK, and (3) a dose of 100 mg for one elderly cohort. […] Additionally, renal elimination of Compound I was neglible after multiple dosing, e.g., <1% was observed on Day 1 and Day 14 for all subjects.

human neprilysin (NEP) = human neprilysin (NEP) (Homo sapiens, UniProt P08473); assay: in vitro human neprilysin inhibitor activity (pKi); format: biochemical
Sequence of human neprilysin (NEP) (P08473 whole entry): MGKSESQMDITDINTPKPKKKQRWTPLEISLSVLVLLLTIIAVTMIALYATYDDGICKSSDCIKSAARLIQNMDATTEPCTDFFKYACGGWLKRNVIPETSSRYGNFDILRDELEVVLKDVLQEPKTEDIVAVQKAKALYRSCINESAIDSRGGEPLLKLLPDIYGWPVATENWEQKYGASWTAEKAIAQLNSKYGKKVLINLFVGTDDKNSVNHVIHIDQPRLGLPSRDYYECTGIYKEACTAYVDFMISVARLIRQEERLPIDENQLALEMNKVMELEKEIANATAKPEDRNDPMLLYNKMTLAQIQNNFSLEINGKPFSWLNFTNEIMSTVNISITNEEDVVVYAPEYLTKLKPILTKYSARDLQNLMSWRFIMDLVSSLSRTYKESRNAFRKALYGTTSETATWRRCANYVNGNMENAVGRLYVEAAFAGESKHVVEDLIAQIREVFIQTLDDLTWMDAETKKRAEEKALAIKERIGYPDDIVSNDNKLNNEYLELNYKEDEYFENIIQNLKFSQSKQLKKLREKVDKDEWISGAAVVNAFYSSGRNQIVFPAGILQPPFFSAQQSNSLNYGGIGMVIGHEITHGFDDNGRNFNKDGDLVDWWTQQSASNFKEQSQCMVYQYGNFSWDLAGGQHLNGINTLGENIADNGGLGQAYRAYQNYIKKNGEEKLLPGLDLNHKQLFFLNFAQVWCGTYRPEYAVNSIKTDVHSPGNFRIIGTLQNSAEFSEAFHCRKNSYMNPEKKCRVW
Excerpt: One measure of the ability of a compound to inhibit NEP activity is the inhibition constant (pKi). The pKi value is the negative logarithm to base 10 of the dissociation constant (Ki), which is typically reported in molar units. The compound of the invention has a pKi at NEP≥9.0.
The in vitro-to-in vivo extrapolation of drug behavior in a subject continues to improve (see, e.g., Chiba et al., AAPS J., 2009 June; 11 (2): 262-276). In the present invention, in vitro human neprilysin inhibitor activity was assessed in order to determine neprilysin inhibitory activity of Compound I and crystalline form I′. A threshold of pKi>9.0 was met. However, additional in vivo experiments were further performed in order to more accurately predict the behavior of Compound I and crystalline form I′ in a subject.

[2] = Assay 4: Phase 1 multiple-ascending dose study, safety and tolerability; format: in vivo, human; settings: healthy adult and elderly subjects, multiple oral doses up to 14 days
Procedure: as §1, §2

[3] = Assay 3: Phase 1 single-ascending dose study, safety and tolerability; format: in vivo, human; settings: healthy volunteers, single doses up to 600 mg
Procedure: (§3) A Phase 1 single-ascending dose (SAD) clinical trial of Compound I′ (Form I), which converts to or dissolves to provide its soluble form Compound I in the body, was conducted in order to assess neprilysin inhibition for the treatment of a range of cardiovascular and renal diseases, including, e.g., chronic kidney disease, diabetic nephropathy, acute and chronic heart failure, heart failure with reduced ejection fraction, heart failure with preserved ejection fraction, post-myocardial infarction asymptomatic left ventricular dysfunction (post-MI asymptomatic LVD), subacute heart failure and resistant and isolated systolic hypertension. Safety and tolerability, pharmacokinetic (support for QD/BID dosing and non-renal excretion), pharmacodynamic (test for target engagement biomarkers cGMP and ANP), food effect, and absolute oral bioavailability and renal elimination using a ^14C intravenous microtracer, inter alia, were tested.
The Phase 1 study was a double-blind, randomized placebo-controlled single ascending dose study in healthy male and female volunteers randomized in a 4:1 ratio. The study enrolled 56 healthy volunteers over multiple weeks for the ascending-dose portion, which included cohorts (n=10/cohort of 8 active and 2 placebo) administered single ascending doses of 50 mg, 100 mg, 200 mg, 400 mg and 600 mg. […]

[4] = Assay 1: IV/PO pharmacokinetic study in monkeys; format: in vivo, male cynomolgus monkeys; settings: for bioavailability / AUC(0-t): cynomolgus monkey, plasma; for AUC(0-t): read-out: AUClast Mean; for CLlast Mean: monkey
Procedure: A monkey PK study was performed with an appropriate mass of Compound I in volume of vehicle (e.g., 5% sodium bicarbonate, 5% dextrose in H2O, pH 7.4, for oral and IV and filtered through a […] PDVF syringe for IV) such that the final concentration was dosed at 1.0 mg/mL for both IV and PO.
Intravenous doses of Compound I were administered through an indwelling catheter in the cephalic vein followed by a saline flush of approximately 3 mL. Intravenous doses were administered at a volume of 1 mL/kg. Oral doses were delivered into the stomach using a syringe and gavage tube followed by a water flush of approximately 10 mL. Oral doses were administered at a volume of 2 mL/kg. Blood samples were collected from each animal at each time point (pre-dose, 0.083 h, 0.25 h, 0.5 h, 1 h, 2 h, 4 h, 6 h, 8 h, 12 h, and 24 h) via the cephalic, femoral, or sphenous vein through […]. All samples were collected into K2EDTA tubes and placed on ice. Samples were processed to plasma by centrifugation (3200 rpm, 10 minutes, 5° C.), and acidified with a final concentration of 2% acetic acid. Aliquots of plasma were transferred to a 96-well plate tubes and stored frozen (−70° C.) prior to bioanalysis.
Plasma concentrations of Compound I were determined by LC/MS/MS. Plasma study samples were vortexed and placed in a 96-well plate. The samples were extracted with 200 μL of acetonitrile with an internal standard. The extract was centrifuged for 10 minutes at 2809 RPM and 50 μL supernatant was mixed with 200 μL 0.2% formic acid in water. Samples (10-15 μL) were injected on a ThermoFisher HyPURITY™ (C18 50×2.1 mm) column with a flow rate of 0.35 mL/min. Mobile phase A consisted of water: acetonitrile: formic acid (95:5:0.1, v:v:v) and Mobile phase B consisted of methanol: acetonitrile: formic acid (50:50:0.1, v:v:v) (dog). Mobile phase A consisted of 0.2% formic acid in water and mobile phase B consisted of 0.2% formic acid in acetonitrile (rat and monkey). Pharmacokinetic parameters of Compound I were determined by non-compartmental analysis (Model 201 and Model 200 for IV and PO administration, respectively) using Phoenix WinNonlin Version 6.3 (Certara, Sunnyvale, CA) and using individual plasma concentration time profiles from 3 animals per treatment group.
Plasma clearance was determined from the intravenous arm of the study, and represents the rate at which plasma is cleared of drug. It is equal to the dose divided by the area under the plasma concentration-time curve. In addition to plasma clearance, it is also essential for an orally administered drug to reach efficacious systemic levels following oral delivery. Oral bioavailability is a measurement of plasma exposures following oral administration relative to exposures following intravenous administration.

[5] = Assay 3.2: PK profile, oral bioavailability and renal excretion in human (SAD, 14C i.v. microtracer); format: in vivo
Procedure: as §3
The Phase 1 study was a double-blind, randomized placebo-controlled single ascending dose study in healthy male and female volunteers randomized in a 4:1 ratio. The study enrolled 56 healthy volunteers over multiple weeks for the ascending-dose portion, which included cohorts (n=10/cohort of 8 active and 2 placebo) administered single ascending doses of 50 mg, 100 mg, 200 mg, 400 mg and 600 mg. A sixth cohort (n=6) was administered i.v. microtracer and oral doses of 10 μg and 100 mg, respectively.

In the case of `CCOC[C@](C)(C[C@@H](Cc1ccc(-c2cc(Cl)ccc2F)cc1)NC(=O)c1cc(O)no1)C(=O)O` [Compound I, (2S,4R)-5-(5′-Chloro-2′-fluoro-[1,1′-biphenyl]-4-yl)-2-(ethoxymethyl)-4-(3-hydroxyisoxazole-5-carboxamido)-2-methylpentanoic Acid], the renal elimination [1] is reported as < 1%, the Ki (human neprilysin (NEP)) is reported as < 1 nM and the tolerability [2] is reported as “generally well-tolerated”. The tolerability [3] was “well-tolerated”, the bioavailability ([4]; po, higher doses (30 and 100 mg/kg), three different formulations, data not shown, read-out: mean bioavailability) was 55 to 83% and the bioavailability ([4]; male, IV 1 mg/kg, PO 2 mg/kg, read-out: Oral Bioavailability Mean) was 41.8%. The AUC(0-t) ([4]; male, IV, 1 mg/kg) was 2290 ng·h/mL, the AUC(0-t) ([4]; male, PO, 2 mg/kg) was 1910 ng·h/mL and the “CLlast Mean” value ([4]; IV, 1 mg/kg) was 6.33 mL/min/kg. The “CLlast Mean” value ([4]; PO, 2 mg/kg) was 21.8 mL/min/kg, the bioavailability ([5]; both sexes, in vivo, po, 100 mg, human, SAD clinical trial) was ~80% and the pharmacokinetic profile ([5]; healthy subjects, single doses 50-600 mg) was “dose-proportional”. For the same compound, the “renal elimination (of total administered dose)” value ([5]; human, SAD clinical trial, confirmed by intravenous microtracer) was < 1%.
